Laboratory results reported in ChEMBL document CHEMBL3430912, “GSK Tres Cantos Anti-Kinetoplastid Screening (TCAKS) Data”.

Key:
[1] = test system: Trypanosoma brucei brucei; experiment: GSK_TCAKS: pIC50 Trypanosoma brucei viability assay using fluorescence intensity. Assay plates (1536-well) were prepared by dispensing 25nL of compound solution per well using an Echo acoustic dispenser (Labcyte).; type: functional, organism-based; details: Lister 427, 2 h
Trypanosoma cruzi [2] = experiment: GSK_TCAKS: pIC50 Trypanosoma cruzi viability assay using beta-GAL activity. This assay was run at single shot at 5uM compound concentration per well. The biological reagents consisted of NIH-3T3 host cells and trypomastigotes parasitic cells; both cell types were set to a 3.3 * 10^5 cells/mL dilution in assay DMEM by means of a CASY cell counter device using a 60um capillary. 6 uL of the mixture were dispensed per well (about 1 * 10^3 host-cells and 1 * 10^3 parasites) with a Multidrop Combi dispenser. […] In all wells, the percentage of DMSO never exceeded 0.5%. Plates incubated for four days at 37C, 5% CO2. The substrate used for the assay fluorescence intensity (FLINT) readout was resorufin-beta-D-galactopiranoside (Sigma-Aldrich) at 5uM per well. It was diluted in PBS supplemented with the soft detergent Igepal (Fluka).; type: functional, organism-based, Mus musculus; details: Tulahuen, NIH3T3
Leishmania donovani [3] = experiment: GSK_TCAKS: pIC50 Leishmania donovani viability assay using fluorescence intensity. Assay plates (1536-well) were prepared by adding 30nL per well of compound. For single shot assay, the final compound concentration was 5uM. […] Briefly, eGFP LdBOB axenic amastigotes were harvested, fixed and counted in a CASY cell counter (Roche-Applied Science). A final concentration of 1.5 * 10^5 cells per well were prepared in amastigote media containing 500 U/mL penicillin/streptomycin (Invitrogen) and 6uL was dispensed to each experimental well using a Multidrop Combi dispenser (Thermo Scientific). 6uL of assay media was dispensed to control columns used as reference for 100% compound response. Following incubation for 72 h at 37C, 5% CO2, 2 uL of resazurin was added to each well at a final concentration of 0.5 mM in phosphate buffered saline (PBS) with IGEPAL (Sigma-Aldrich), 0.05% (v/v).; type: functional, organism-based
Leishmania donovani [4] = experiment: (§1) GSK_TCAKS: pIC50 Leishmania donovani Imaging: THP-1 Host Macrophages. Assay plates (384-well) were prepared by adding 250nL of compound to each well. For single shot assay, the final compound concentration was 5 uM. […] Automated image analysis was performed with a script developed on Acapella High Content Imaging and Analysis Software (PerkinElmer). Output: THP-1 cell count were reported for each well.; type: functional, organism-based, Homo sapiens
Trypanosoma cruzi [5] = experiment: (§2) GSK_TCAKS: pIC50 Trypanosoma cruzi Imaging: Amastigotes/Cell. […] Cells were then washed once with PBS before infection. T. cruzi trypomastigotes, collected at days 5 to 8 after infection from LLC-MK2 parasite infected cultures, were allowed to swim out for 4h at 37C from a centrifuged pellet (2,500 rpm/10 min/room temperature). Trypomastigotes were then collected and counted in a CASY Cell Counter. Trypomastigotes, in supplemented DMEM, were added to H9c2 cultures in a multiplicity of infection of 1 and incubated for 18 h. Cells were washed once with PBS before incubation of the infected H9c2 monolayer with trypsin (Life-Technologies) to detach cells from the flask. Cells were counted in a CASY Cell Counter using a 150 um capillary and their density set at 5 * 10^4 cells per mL in supplemented assay DMEM. Infected H9c2 were dispensed into 384-well poly-lysine coated assay plates at 50uL per well using a Multidrop Combi dispenser. After seeding them, the plates were incubated at 37C, 5% CO2 for 72h. Cultures were then fixed and stained by addition of 50 uL of a solution containing 8% formaldehyde and 4 uM DRAQ5 DNA dye (BioStatus, UK) per well. […] Five images were collected per well for reliable statistical analysis. Automated image analysis was performed with a script developed on Acapella High Content Imaging and Analysis Software (PerkinElmer). Output: number of amastigotes per cell as infection level measurement.; type: functional, organism-based, Rattus norvegicus; details: H9c2, 4 h
Trypanosoma cruzi [6] = experiment: as §2, with “H2C9” for “Trypanosoma cruzi”, “H9c2 Host Cardiomyocytes.” for “Amastigotes/Cell.”, “Number” for “number”, “H9c2 Host Cardiomyocytes nuclei to determine drug-related cytotoxicity.” for “amastigotes per cell as infection level measurement.”; type: functional, organism-based, Rattus norvegicus; details: H9c2, 4 h
[7] = test system: Trypanosoma brucei brucei; experiment: GSK_TCAKS: pIC50 Trypanosoma brucei viability assay using luminiscence. Assay plates (1536-well) were prepared. T. brucei cultures were harvested and counted in a CASY cell counter. A parasite suspension was prepared at a final concentration of 5 * 10^4 cells/mL in complete HMI9 medium and 6uL was dispensed to all wells containing compounds using a Multidrop Combi dispenser. 6uL of HMI9 media with 0.4% DMSO were dispensed to control columns. Plates were incubated for 24 h at 37C, 5% CO2 then tempered for 10 min at room temperature. ATP content was quantified by adding 4 uL of CellTiter-Glo Reagent (Promega) according to the manufacturer's instructions. Luminescence was measured using a ViewLux.; type: functional, organism-based; details: Lister 427, CASY
Leishmania donovani [8] = experiment: as §1, with “Infected” for “THP-1 Host”, “Percent of infected macrophage cells” for “THP-1 cell count”; type: functional, organism-based, Homo sapiens; details: THP-1
Leishmania donovani [9] = experiment: as §1, with “Amastigotes/Macrophages.” for “THP-1 Host Macrophages.”, “Average number of amastigotes per macrophage” for “THP-1”, “cell” for “cell count”; type: functional, organism-based, Homo sapiens; details: THP-1
Trypanosoma cruzi [10] = experiment: GSK_TCAKS: pIC50 Trypanosoma cruzi Imaging: Infected Cells. […] Cells were then washed once with PBS before infection. T. cruzi trypomastigotes, collected at days 5 to 8 after infection from LLC-MK2 parasite infected cultures, were allowed to swim out for 4h at 37C from a centrifuged pellet (2,500 rpm/10 min/room temperature). Trypomastigotes were then collected and counted in a CASY Cell Counter. Trypomastigotes, in supplemented DMEM, were added to H9c2 cultures in a multiplicity of infection of 1 and incubated for 18 h. Cells were washed once with PBS before incubation of the infected H9c2 monolayer with trypsin (Life-Technologies) to detach cells from the flask. Cells were counted in a CASY Cell Counter using a 150 um capillary and their density set at 5 * 10^4 cells per mL in supplemented assay DMEM. Infected H9c2 were dispensed into 384-well poly-lysine coated assay plates at 50uL per well using a Multidrop Combi dispenser. After seeding them, the plates were incubated at 37C, 5% CO2 for 72h. Cultures were then fixed and stained by addition of 50 uL of a solution containing 8% formaldehyde and 4 uM DRAQ5 DNA dye (BioStatus, UK) per well. […] Five images were collected per well for reliable statistical analysis. Automated image analysis was performed with a script developed on Acapella High Content Imaging and Analysis Software (PerkinElmer). Output: percentage of infected cells per well as a second infection marker.; type: functional, organism-based, Rattus norvegicus; details: H9c2, 4 h
[11] = target: Sterol 14-alpha demethylase (Trypanosoma cruzi (strain CL Brener), UniProt Q7Z1V1); experiment: GSK_TCAKS: pIC50 CYP51 from Trypanosoma cruzi.; type: functional
Sequence of Sterol 14-alpha demethylase (Q7Z1V1 whole entry): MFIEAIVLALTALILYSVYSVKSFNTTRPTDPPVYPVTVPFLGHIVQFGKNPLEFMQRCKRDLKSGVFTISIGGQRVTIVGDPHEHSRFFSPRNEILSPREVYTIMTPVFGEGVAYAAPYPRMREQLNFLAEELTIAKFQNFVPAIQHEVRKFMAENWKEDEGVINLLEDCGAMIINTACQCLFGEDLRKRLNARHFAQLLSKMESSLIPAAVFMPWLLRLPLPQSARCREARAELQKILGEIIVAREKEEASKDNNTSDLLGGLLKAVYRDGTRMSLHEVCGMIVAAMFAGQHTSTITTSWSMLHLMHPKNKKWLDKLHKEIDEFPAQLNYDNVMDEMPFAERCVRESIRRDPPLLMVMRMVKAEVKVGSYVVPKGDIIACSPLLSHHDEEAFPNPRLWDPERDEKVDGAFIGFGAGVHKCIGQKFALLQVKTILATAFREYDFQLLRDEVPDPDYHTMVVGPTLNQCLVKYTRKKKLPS

[12] = GSK_TCAKS: pIC50 HepG2 human cell line viability assay using luminiscence. […] Seeding density was checked to ensure that new mono-layers were not more than 50% confluent at the time of harvesting. Cell suspension was added to 500 mL of the same medium at a final density of 1.2 * 10^5 cells/mL. This cell suspension was dispensed (25 uL, 3000 cells per well) into 384-well clear-bottom plates using a Multidrop Combi dispenser. Prior to addition of the cell suspension, the screening compounds (250 nL) were pre-dispensed into the plates with an Echo liquid handler. Plates were incubated for 48 h at 37C, 5% CO2. After incubation, plates equilibrated at room temperature for 30 min before proceeding to develop the luminescent signal. The signal developer, CellTiter-Glo Reagent, was allowed to equilibrate at room temperature for 30 min and added to the plates (25uL per well) using a Multidrop Combi dispenser. Plates were left for 10 min at room temperature for stabilization and then read using a ViewLux.; type: toxicity, cell-based

Structure (SMILES)	IC50 [1] [µM]	IC50 (Trypanosoma cruzi [2]) [µM]	IC50 (Leishmania donovani [3]) [µM]	IC50 (Leishmania donovani [4]) [µM]	IC50 (Trypanosoma cruzi [5]) [µM]	IC50 (Trypanosoma cruzi [6]) [µM]	IC50 [7] [µM]	IC50 (Leishmania donovani [8]) [µM]	IC50 (Leishmania donovani [9]) [µM]	IC50 (Trypanosoma cruzi [10]) [µM]	IC50 [11] [µM]	IC50 at 48 h [12] [µM]
COc1ccc(Cl)cc1CC(=O)Nc1nnc(-c2ccccn2)[nH]1	15.8	10	3.98	> 50.1	10	> 50.1	> 39.8	6.31	5.01	> 50.1	> 100	31.6
Cc1nn2c(O)c3c(nc2c1-c1ccc(F)cc1)CCCC3	0.398	1.58	1.26	> 50.1	0.794	> 50.1	0.631	> 50.1	> 50.1	2	> 100	> 100
Cc1nc(C(=O)Nc2ccc3c(c2)OCO3)nn1-c1ccc(Cl)cc1	> 39.8	6.31	2.51	12.6	1	> 50.1	> 39.8	2	1.58	1.58	31.6	> 100
Cn1nc(C(=O)N2CCc3ccccc32)c2c1CCS(=O)(=O)C2	3.98	7.94	3.98	> 50.1	7.94	> 50.1	6.31	3.98	1.58	12.6	> 100	> 100
CN(CCOc1ccc(Cl)cc1)Cc1nc(N)nc(N(C)C)n1	25.1	5.01	15.8	> 50.1	7.94	> 50.1	15.8	7.94	5.01	10	31.6	> 100
O=C1NCc2cccc(Nc3nc(N[C@H]4CC[C@H](O)CC4)ncc3Br)c21	0.0631	0.631	0.794	0.1	0.398	0.1	0.126	0.158	0.126	1	> 100	> 100
N#Cc1ccc(C(=O)Nc2cccc(-c3cccc(CN4CCC(O)CC4)c3)c2)cc1	0.794	5.01	> 50.1	15.8	7.94	31.6	0.794	15.8	7.94	7.94	25.1	39.8
Cc1ncsc1CNc1cnc(-c2ccc3c(c2)OCCO3)c(-c2cnn(C)c2)c1	0.126	12.6	25.1	15.8	20	> 50.1	0.2	15.8	12.6	39.8	7.94	> 100
O=[N+]([O-])c1ccc(-c2nnn(-c3cccnc3)n2)o1	0.316	0.251	15.8	12.6	0.0631	6.31	0.501	> 50.1	50.1	> 50.1	3.98	> 100
CN1C(=O)c2ccccc2Sc2ccc(NC(=O)NCc3ccco3)cc21	0.398	10	> 50.1	> 50.1	6.31	25.1	0.501	> 50.1	25.1	12.6	31.6	> 100
CC(C)(C)C(=O)Nc1cc(C2CC2)nn1-c1nc2c(c(=O)[nH]1)CCCC2	0.158	0.501	0.0794	7.94	0.126	2	0.2	5.01	2	0.501	> 100	> 100
